From patent publication US8927601B2, “Uses of N-butylidenephthalide in treating a liver injury and improving liver function” (National Dong Hwa University, priority 2011, dated 2015)
Entries after “also recorded” stand apart in the source; their conditions may differ.

Columns and labels:
[1] = test system: alcoholic-induced liver cirrhosis; conditions: patients with alcoholic-induced liver cirrhosis; cited from earlier work
angina = conditions: conscious rats; cited from earlier work
[2] = test system: TAA induced fibrotic livers; assay: Thioacetamide (TAA)-induced chronic liver fibrosis rat model: gross examination and histopathology (H&E, Masson's trichrome, Metavir score); format: in vivo, Wistar rats
Description: (§1) 5 ml/kg of thioacetamide (TAA) was injected intraperitoneally into Wistar rats every three days for eight weeks to induce the liver damage. The therapy was performed starting from the fifth week during the thioacetamide induction. 80 mg/Kg/day or 500 mg/Kg/day of n-BP were orally administrated in experimental rats for four weeks.
(§2) To establish the chronic liver fibrosis model in rat, adult male Wistar rats (320±20 g) were used and were intraperitoneally injected with 200 mg/kg TAA (Sigma-Aldrich) once every 3 days for 8 weeks as the liver fibrosis model (78 rats). In the Normal group (24 rats), normal saline was used in place of the TAA. At the end of 4, 6, 8, and 10 weeks (i.e., day 28, 42, 56, and 70 respectively), these rats were sacrificed and cardiac blood samples were collected. These samples were analyzed with a biochemical analyzer (Integra 800; Roche, Holliston, Mass., USA) to measure the liver function index, which included glutamate oxaloacetate transaminase (GOT), glutamate pyruvate transaminase (GPT), serum albumin, total bilirubin and prothrombin time.
Afterwards, the histopathology of liver tissue samples obtained from the sacrificed rats were also analyzed. Liver tissue samples were fixed in 3.7% formaldehyde and then embedded in paraffin. Serial 3-μm sections of the embedded tissues were stained with hematoxylin and eosin or Masson's trichrome. Liver fibrosis is the excessive accumulation of collagen in liver, and therefore the accumulation of collagen is an important index for evaluating liver fibrosis. Masson's trichrome stain is frequently used to identify increases in collagenous tissue in fibrotic liver. For Masson's trichrome stain, sectioned samples were placed in Bouin's solution (Sigma-Aldrich) at 56° C. for 1 h and then were stained sequentially with the following solutions: Mayer's hematoxylin solution (Sigma-Aldrich) for 5 min, Biebrich scarlet-acid fuchsin solution (Sigma-Aldrich) for 15 min, phosphomolybdic acid-phosphotungstic acid (Sigma-Aldrich) for 15 min, and aniline blue (Sigma-Aldrich) for 5 min.
(§3) 78 rats with TAA induced fibrotic livers were randomly divided into 4 groups. For group 1 (TAA group), there were 24 rats which received no therapy. The remaining […] were divided into three groups: Control group, n-BP treated group I (BP 80 mg/kg group) and n-BP treated group II (BP 500 mg/kg group). For these three groups, from the beginning of week 5 to the end of week 8, olive oil, n-BP (80 mg/Kg/day), and n-BP (500 mg/Kg/day) were orally administrated once per day to the rats, wherein the dosage was 1 ml of olive oil per kilogram body weight (Control group), 1 ml of 80 mg/ml n-BP olive oil solution per kilogram body weight (BP 80 mg/kg group), and 1 ml of 500 mg/ml n-BP olive oil solution per kilogram of body weight (BP 500 mg/kg group), respectively. n-BP was purchased from Alfa Aesar®, cat. A10353.
(§4) At the end of 6, 8, and 10 weeks, rats of each group were sacrificed and cardiac blood samples were collected. These samples were analyzed with a biochemical analyzer (Integra 800; Roche, Holliston, Mass., USA) to measure the liver function index, which included glutamate oxaloacetate transaminase (GOT), glutamate pyruvate transaminase (GPT), serum albumin, and prothrombin time. Afterwards, the histopathology of liver tissue samples obtained from the sacrificed rats was also analyzed. Liver tissue samples were fixed in 3.7% formaldehyde and then embedded in paraffin. Serial 3-μm sections of the embedded tissues were stained with hematoxylin and eosin or Masson's trichrome as described above.

[3] = test system: TAA induced fibrotic livers; assay: Thioacetamide (TAA)-induced chronic liver fibrosis rat model: liver function index in blood (GOT, GPT, total bilirubin, albumin, prothrombin time); format: in vivo, Wistar rats
Description: as §1, §2, §3, §4

[4] = both n-BP treated groups, end of week 10

| Compound | mortality [1] | antianginal effect (angina) | effect on blood pressure or heart rate (angina) | gross examination of the liver ([2]; BP 80 mg/kg group (No. 73, 78) and BP 500 mg/kg group (No. 81, 87)) | inflammatory activity scores (Metavir) ([2]; n-BP 80 or 500 mg/Kg/day oral) | fibrosis grade (Metavir), Masson's trichrome staining ([2]; n-BP 80 or 500 mg/Kg/day oral, weeks 5-8, on 42, 56 and 70 days, control group grade 3-4) | fibrosis score versus control group (olive oil) ([2]; n-BP 80 or 500 mg/Kg/day oral, 42, 56 and 70 days) | collagen accumulation in liver (Masson's trichrome staining) ([2]; n-BP 80 or 500 mg/Kg/day oral, 42, 56 and 70 days (weeks 6, 8, 10)) | liver damage in hematoxylin and eosin stained sections ([2]; n-BP 80 or 500 mg/Kg/day oral, end of 8 weeks and 10 weeks) | inflammation and accumulation of collagen fibers (histopathological examinations) ([2]; therapy groups, n-BP 80 or 500 mg/Kg/day oral for four weeks) | serum total bilirubin level ([3]; both n-BP treated groups, end of week 6 (two weeks after treatments) continuing to end of week 10) | prothrombin time [3, 4] | serum GOT level [3, 4] | serum GPT level [3, 4] | serum total bilirubin level versus Control group [3, 4] | prothrombin time ([3]; both n-BP treated groups, from the end of week 6) | liver function index including GOT, GPT, albumin, total bilirubin and prothrombin time, versus control group ([3]; n-BP 80 or 500 mg/Kg/day oral for four weeks) | serum albumin level ([3]; n-BP treated groups, end of week 10) [g/dL] | albumin level ([3]; n-BP treated groups, ends of week 6 and week 8) |
| --- | --- | --- | --- | --- | --- | --- | --- | --- | --- | --- | --- | --- | --- | --- | --- | --- | --- | --- | --- |
| CC(=O)CCCCn1c(=O)c2c(ncn2C)n(C)c1=O [Pentoxifylline] | significantly reduce the mortality |  |  |  |  |  |  |  |  |  |  |  |  |  |  |  |  |  |  |
| CCCC=C1OC(=O)c2ccccc21 [n-BP, n-butylidenephthalide] |  | relieves angina | without affecting blood pressure or the heart rate | become even better like normal liver morphology | improvement in the recovery of the damaged liver occurs 2 weeks after n-BP treatment | 1-2 | lower | Collagen degradation was found; also recorded: almost no collagen accumulation | recovery from tissue degeneration and vacuolation was evident | significantly reduced | decline at the end of week 6 | decreased to approach that of the Normal group | decline to near-normal values | decline to near-normal values | significantly lower | decreases | significant recovery of liver damage | 4.35 ± 0.47 | rises |
